For 27 molecules, IC50 results are on record in patent publication US8921559B2, “4-substituted-cyclohexylamino-4-piperidinyl-acetamide antagonists of CCR2” (Janssen Pharmaceutica NV, priority 2010, dated 2014).

Molecules are shown by their SMILES. Structures can show the parent of a compound that is named as a salt.

Sequence of CCR2 (P41597 other isoform, or with tags, fused parts or gaps isoform P41597-2): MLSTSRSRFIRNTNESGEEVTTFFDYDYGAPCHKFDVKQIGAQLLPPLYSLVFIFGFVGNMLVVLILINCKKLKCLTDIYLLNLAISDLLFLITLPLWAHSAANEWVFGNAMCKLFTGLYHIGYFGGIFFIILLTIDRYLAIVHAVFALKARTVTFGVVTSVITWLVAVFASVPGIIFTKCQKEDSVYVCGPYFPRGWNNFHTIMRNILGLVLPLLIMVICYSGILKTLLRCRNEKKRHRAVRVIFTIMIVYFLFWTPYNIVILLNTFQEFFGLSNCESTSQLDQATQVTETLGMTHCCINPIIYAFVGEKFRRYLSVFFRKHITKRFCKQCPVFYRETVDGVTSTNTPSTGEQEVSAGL

In the assay the target is CCR2 (Homo sapiens (Human), UniProt P41597). As to the kind of experiment: MCP-1 Receptor Binding Assay in THP-1 Cells. To be noted: 0.5 nM 125I labeled MCP-1, 2 hours at 30° C., average of the two most similar values where more than one IC50, read-out: Inhibition of MCP-1 Binding IC50 CCR2 Binding. Here is the method:
Compounds of the invention were subjected to various representative biological tests. […] MCP-1 Receptor Binding Assay in THP-1 Cells Human monocytic cell line THP-1 cells were obtained from American Type Culture Collection (Manassas, Va., USA). The THP-1 cells were grown in RPMI-1640 (RPMI: Roswell Park Memorial Institute Medium-cell culture growth media) supplemented with 10% fetal bovine serum in a humidified 5% CO2 atmosphere at 37° C. The cell density was maintained between […].
THP-1 (cells were incubated with 0.5 nM ^125I labeled MCP-1 (Perkin-Elmer Life Sciences, Inc. Boston, Mass.) in the presence of varying concentrations of either unlabeled MCP-1 (R & D Systems, Minneapolis, Minn.) or test compound for 2 hours at 30° C. in a 96 well plate. Cells were then harvested onto a filter plate, dried, and 20 μL of Microscint 20 was added to each well. Plates were counted in a TopCount NXT, Microplate Scintillation & Luminescence Counter (Perkin-Elmer Life Sciences, Inc. Boston, Mass.). Blank values (buffer only) were subtracted from all values and drug treated values were compared to vehicle treated values. 1 μM cold MCP-1 was used for nonspecific binding.
Regarding `NC(=O)C(NC1CCC(c2c[nH]c3cccnc23)CC1)C1CCN(C(=O)Nc2ccc(Cl)c(Cl)c2)CC1` (stereo not drawn) [Example 42, 2-[trans-4-(1H-pyrrolo[3,2-b]pyridin-3-yl)cyclohexyl]amino-2-[N-(3,4-dichlorophenyl)piperidine-1-carboxamid-4-yl]-acetamide], the IC50 came to 87 nM.

Consider `NC(=O)C(NC1CCC(c2c[nH]c3ccccc23)CC1)C1CCN(C(=O)/C=C/c2ccc3c(c2)CCO3)CC1` (stereo not drawn) [Example 15, 2-[4-(1H-Indol-3-yl)-cyclohexylamino]-2-[1-(trans-3-(2,3-dihydrobenzofuran-5-yl)prop-2-enoyl)piperidin-4-yl]-acetamide], for which the IC50 turned out to be 149 nM.

Regarding `NC(=O)C(NC1CCC(c2c[nH]c3ccccc23)CC1)C1CCN(C(=O)Nc2ccc(F)cc2)CC1` (stereo not drawn) [Example 29, 2-[4-(1H-Indol-3-yl)-cyclohexylamino]-2-[N-(4-fluorophenyl)piperidine-1-carboxamid-4-yl]-acetamide], the IC50 was 669 nM.

Turning to `NC(=O)C(NC1CCC(c2c[nH]c3ccncc23)CC1)C1CCN(C(=O)Nc2ccc(Cl)c(Cl)c2)CC1` (stereo not drawn) [Example 40, 2-[4-(1H-pyrrolo[3,2-c]pyridin-3-yl)cyclohexyl]amino-2-[N-(3,4-dichlorophenyl)piperidine-1-carboxamid-4-yl]-acetamide], the IC50 is 40 nM.

Turning to `NC(=O)C(NC1CCC(c2c[nH]c3ccccc23)CC1)C1CCN(C(=O)/C=C/c2cccc(F)c2)CC1` (stereo not drawn) [Example 7, 2-[4-(1H-Indol-3-yl)-cyclohexylamino]-2-[1-(trans-3-fluorocinnamoyl)-piperidin-4-yl]-acetamide], the IC50 worked out at 23 nM.

For `Cc1cccc(NC(=O)N2CCC(C(NC3CCC(c4c[nH]c5cccnc45)CC3)C(N)=O)CC2)c1` (stereo not drawn) [Example 48, 2-[4-(1H-pyrrolo[3,2-b]pyridin-3-yl)cyclohexyl]amino-2-[N-(3-tolyl)piperidine-1-carboxamid-4-yl]-acetamide], the IC50 stood at 590 nM.

As for `NC(=O)C(NC1CCC(c2c[nH]c3cccnc23)CC1)C1CCN(C(=O)/C=C/c2cc(F)c(F)c(F)c2)CC1` (single isomer, unassigned) [Example 39b, 2-[4-(1H-pyrrolo[3,2-b]pyridin-3-yl)cyclohexyl]amino-2-[1-(trans-3,4,5-trifluorocinnamoyl)-piperidin-4-yl]-acetamide], the IC50 stood at 600 nM.

Consider `NC(=O)C(NC1CCC(c2c[nH]c3cccnc23)CC1)C1CCN(C(=O)/C=C/c2cc(F)cc(F)c2)CC1` (stereo not drawn) [Example 45, R,S-2-[trans-4-(1H-pyrrolo[3,2-b]pyridin-3-yl)cyclohexyl]amino-2-[1-(trans-3,5-difluorocinnamoyl)-piperidin-4-yl]-acetamide], for which the IC50 is 130 nM.

`NC(=O)C(N[C@H]1CC[C@H](c2c[nH]c3cccnc32)CC1)C1CCN(C(=O)/C=C/c2ccccc2)CC1` (stereo partly drawn) [Example 43, R,S-2-[trans-4-(1H-pyrrolo[3,2-b]pyridin-3-yl)cyclohexyl]amino-2-[1-(trans-cinnamoyl)-piperidin-4-yl]-acetamide]: the IC50 was determined as 122 nM.

Take `NC(=O)C(NC1CCC(c2c[nH]c3ccccc23)CC1)C1CCN(C(=O)Nc2ccc(F)c(F)c2)CC1` (stereo not drawn) [Example 32, 2-[4-(1H-Indol-3-yl)-cyclohexylamino]-2-[N-(3,4-difluorophenyl)piperidine-1-carboxamid-4-yl]-acetamide]: the IC50 worked out at 807 nM.

Consider `NC(=O)C(NC1CCC(c2c[nH]c3ccccc23)CC1)C1CCN(C(=O)/C=C/c2ccc(F)cc2)CC1` (stereo not drawn) [Example 6, 2-[4-(1H-Indol-3-yl)-cyclohexylamino]-2-[1-(trans-4-fluorocinnamoyl)-piperidin-4-yl]-acetamide], for which the IC50 is 19 nM.

Turning to `O=C(O)C(N[C@H]1CC[C@@H](c2c[nH]c3ccccc32)CC1)C1CCN(C(=O)Nc2ccc(Cl)c(Cl)c2)CC1` (stereo partly drawn) [Example 28, 2-[4-(1H-Indol-3-yl)-cis-cyclohexylamino]-2-[N-(3,4-dichlorophenyl)-piperidine-1-carboxamid-4-yl]-acetic acid hydrochloride], the IC50 stood at 320 nM.

As for `NC(=O)C(NC1CCC(c2c[nH]c3ccccc23)CC1)C1CCN(C(=O)Nc2ccc(Cl)c(Cl)c2)CC1` (single isomer, unassigned) [Example 4a, 2-[4-(1H-Indol-3-yl)-cyclohexylamino]-2-[N-(3,4-dichlorophenyl)piperidine-1-carboxamid-4-yl]-acetamide], the IC50 was found to be 470 nM.

Consider `NC(=O)C(NC1CCC(c2c[nH]c3ccccc23)CC1)C1CCN(C(=O)Nc2cccc(F)c2)CC1` (stereo not drawn) [Example 20, 2-[4-(1H-Indol-3-yl)-cyclohexylamino]-2-[N-(3-fluorophenyl)piperidine-1-carboxamid-4-yl]-acetamide], for which the IC50 turned out to be 370 nM.

As to `NC(=O)C(N[C@H]1CC[C@H](c2c[nH]c3ccncc32)CC1)C1CCN(C(=O)/C=C/c2cc(F)c(F)c(F)c2)CC1` (stereo partly drawn) [Example 41, R,S-2-[trans-4-(1H-pyrrolo[3,2-c]pyridin-3-yl)cyclohexyl]amino-2-[1-(trans-3,4,5-trifluorocinnamoyl)-piperidin-4-yl]-acetamide], the IC50 came to 83 nM.

`NC(=O)C(NC1CCC(c2c[nH]c3ccccc23)CC1)C1CCN(C(=O)/C=C/c2ccc(F)c(F)c2)CC1` (stereo not drawn) [Example 5, 2-[4-(1H-Indol-3-yl)-cyclohexylamino]-2-[1-(trans-3,4-difluorocinnamoyl)-piperidin-4-yl]-acetamide]: the IC50 was 21 nM.

In the case of `NC(=O)C(N[C@H]1CC[C@H](C2CNc3ccccc32)CC1)C1CCN(C(=O)/C=C/c2cc(F)c(F)c(F)c2)CC1` (stereo partly drawn) [Example 52, 2-{[4-(2,3-dihydro-1H-indol-3-yl)-trans-cyclohexylamino]-2-[1-(trans-3,4,5-trifluorocinnamoyl)-piperidin-4-yl]}-acetamide], the IC50 came out at 950 nM.

As for `COc1ccc(C2CCC(NC(C(N)=O)C3CCN(C(=O)/C=C/c4cc(F)c(F)c(F)c4)CC3)CC2)cn1` (stereo not drawn) [Example 50, 2-[4-(6-methoxypyridin-3-yl)cyclohexyl]amino-2-[1-(trans-3,4,5-trifluorocinnamoyl)-piperidin-4-yl]-acetamide], the IC50 turned out to be 635 nM.

On to `NC(=O)C(NC1CCC(c2c[nH]c3ncccc23)CC1)C1CCN(C(=O)/C=C/c2cc(F)c(F)c(F)c2)CC1` (stereo not drawn) [Example 44, 2-[4-(1H-pyrrolo[2,3-b]pyridin-3-yl)cyclohexyl]amino-2-[1-(trans-3,4,5-trifluorocinnamoyl)-piperidin-4-yl]-acetamide], for which the half-maximal inhibitory concentration (IC50) came out at 132 nM.

Take `O=C(NO)C(NC1CCC(c2c[nH]c3ccccc23)CC1)C1CCN(C(=O)/C=C/c2cc(F)c(F)c(F)c2)CC1` (stereo not drawn) [Example 51, N-Hydroxy-2-{[4-(1H-Indol-3-yl)-cyclohexylamino]-2-[1-(trans-3,4,5-trifluorocinnamoyl)-piperidin-4-yl]}-acetamide]: the IC50 amounted to 665 nM.

With `NC(=O)C(NC1CCC(c2c[nH]c3ccccc23)CC1)C1CCN(C(=O)/C=C/c2ccc3c(c2)CCCO3)CC1` (stereo not drawn) [Example 33, 2-[4-(1H-indol-3-yl)-cyclohexylamino]-2-{1-[(2E)-3-(3,4-dihydro-2H-chromen-6-yl)prop-2-enoyl]piperidin-4-yl}acetamide], the IC50 came to 960 nM.

Take `NC(=O)C(NC1CCC(c2c[nH]c3ccccc23)CC1)C1CCN(C(=O)Nc2cccc(C(F)(F)F)c2)CC1` (stereo not drawn) [Example 16, 2-[4-(1H-Indol-3-yl)-cyclohexylamino]-2-[N-(3-{trifluoromethyl}-phenyl)piperidine-1-carboxamid-4-yl]-acetamide]: the IC50 turned out to be 150 nM.

As for `O=C(O)C(N[C@H]1CC[C@H](c2c[nH]c3ccccc32)CC1)C1CCN(C(=O)/C=C/c2cc(F)cc(F)c2)CC1` (stereo partly drawn) [Example 25, 2-[4-(1H-Indol-3-yl)-trans-cyclohexylamino]-2-[1-(trans-3,5-difluorocinnamoyl)-piperidin-4-yl]-acetic acid hydrochloride], the half-inhibitory concentration (IC50) came to 220 nM.

For the molecule `NC(=O)C(NC1CCC(c2c[nH]c3ccccc23)CC1)C1CCN(C(=O)/C=C/c2ccc3c(c2)OCCO3)CC1` (stereo not drawn) [Example 23, 2-[4-(1H-Indol-3-yl)-cyclohexylamino]-2-[1-(trans-3-[2,3-dihydro-1,4-benzodioxin-7-yl]prop-2-enoyl)piperidin-4-yl]-acetamide], the IC50 was determined as 602 nM.

As to `NC(=O)C(NC1CCC(c2c[nH]c3ccccc23)CC1)C1CCN(C(=O)Nc2ccc(C(F)(F)F)cc2)CC1` (stereo not drawn) [Example 9, 2-[4-(1H-Indol-3-yl)-cyclohexylamino]-2-[N-(4-{trifluoromethyl}-phenyl)piperidine-1-carboxamid-4-yl]-acetamide], the IC50 was found to be 130 nM.

On to `NC(=O)C(NC1CCC(c2c[nH]c3ccccc23)CC1)C1CCN(C(=O)Nc2ccc(OC(F)(F)F)cc2)CC1` (stereo not drawn) [Example 11, 2-[4-(1H-Indol-3-yl)-cyclohexylamino]-2-[N-(4-{trifluoromethoxy}-phenyl)piperidine-1-carboxamid-4-yl]-acetamide], for which the IC50 worked out at 264 nM.

`CSc1cccc(NC(=O)N2CCC(C(NC3CCC(c4c[nH]c5ccccc45)CC3)C(N)=O)CC2)c1` (stereo not drawn) [Example 31, 2-[4-(1H-Indol-3-yl)-cyclohexylamino]-2-[N-(3-{methysulfanyl}phenyl)-piperidine-1-carboxamid-4-yl]-acetamide]: the IC50 was 710 nM.
